Assay results as given in ChEMBL document CHEMBL4507267 (2021).

How the values were obtained:
[1] = system: Tyrosine-protein kinase ABL1 (Homo sapiens), P00519 [E255K]; conditions: Compound concentration 1000.0 nM
[2] = biological target: Activin receptor type-1 (Homo sapiens) (UniProt Q04771); conditions: Compound concentration 1000.0 nM
[3] = biological target: Ankyrin repeat and protein kinase domain-containing protein 1 (Homo sapiens) (UniProt Q8NFD2); conditions: Compound concentration 1000.0 nM
[4] = biological target: Mitogen-activated protein kinase kinase kinase 6 (Homo sapiens) (UniProt O95382); conditions: Compound concentration 1000.0 nM
[5] = biological target: Bone morphogenetic protein receptor type-1B (Homo sapiens) (UniProt O00238); conditions: Compound concentration 1000.0 nM
[6] = biological target: Bone morphogenetic protein receptor type-2 (Homo sapiens) (UniProt Q13873); conditions: Compound concentration 1000.0 nM
[7] = biological target: Serine/threonine-protein kinase BRSK1 (Homo sapiens) (UniProt Q8TDC3); conditions: Compound concentration 1000.0 nM
[8] = biological target: Calcium/calmodulin-dependent protein kinase type II subunit alpha (Homo sapiens) (UniProt Q9UQM7); conditions: Compound concentration 1000.0 nM
[9] = biological target: Cyclin-dependent kinase 9 (Homo sapiens) (UniProt P50750); conditions: Compound concentration 1000.0 nM
[10] = biological target: Cyclin-dependent kinase-like 5 (Homo sapiens) (UniProt O76039); conditions: Compound concentration 1000.0 nM
[11] = biological target: Casein kinase I isoform delta (Homo sapiens) (UniProt P48730); conditions: Compound concentration 1000.0 nM
[12] = biological target: Casein kinase I isoform gamma-2 (Homo sapiens) (UniProt P78368); conditions: Compound concentration 1000.0 nM
[13] = biological target: Megakaryocyte-associated tyrosine-protein kinase (Homo sapiens) (UniProt P42679); conditions: Compound concentration 1000.0 nM
[14] = system: Epidermal growth factor receptor (Homo sapiens), P00533 [G719S]; conditions: Compound concentration 1000.0 nM
[15] = biological target: Ephrin type-B receptor 4 (Homo sapiens) (UniProt P54760); conditions: Compound concentration 1000.0 nM
[16] = biological target: Mitogen-activated protein kinase 3 (Homo sapiens) (UniProt P27361); conditions: Compound concentration 1000.0 nM
[17] = biological target: Mitogen-activated protein kinase 1 (Homo sapiens) (UniProt P28482); conditions: Compound concentration 1000.0 nM
[18] = biological target: Focal adhesion kinase 1 (Homo sapiens) (UniProt Q05397); conditions: Compound concentration 1000.0 nM
[19] = biological target: Tyrosine-protein kinase Fes/Fps (Homo sapiens) (UniProt P07332); conditions: Compound concentration 1000.0 nM
[20] = biological target: Fibroblast growth factor receptor 1 (Homo sapiens) (UniProt P11362); conditions: Compound concentration 1000.0 nM
Chain of Fibroblast growth factor receptor 1 (Homo sapiens) (P11362 22-822 limits assumed): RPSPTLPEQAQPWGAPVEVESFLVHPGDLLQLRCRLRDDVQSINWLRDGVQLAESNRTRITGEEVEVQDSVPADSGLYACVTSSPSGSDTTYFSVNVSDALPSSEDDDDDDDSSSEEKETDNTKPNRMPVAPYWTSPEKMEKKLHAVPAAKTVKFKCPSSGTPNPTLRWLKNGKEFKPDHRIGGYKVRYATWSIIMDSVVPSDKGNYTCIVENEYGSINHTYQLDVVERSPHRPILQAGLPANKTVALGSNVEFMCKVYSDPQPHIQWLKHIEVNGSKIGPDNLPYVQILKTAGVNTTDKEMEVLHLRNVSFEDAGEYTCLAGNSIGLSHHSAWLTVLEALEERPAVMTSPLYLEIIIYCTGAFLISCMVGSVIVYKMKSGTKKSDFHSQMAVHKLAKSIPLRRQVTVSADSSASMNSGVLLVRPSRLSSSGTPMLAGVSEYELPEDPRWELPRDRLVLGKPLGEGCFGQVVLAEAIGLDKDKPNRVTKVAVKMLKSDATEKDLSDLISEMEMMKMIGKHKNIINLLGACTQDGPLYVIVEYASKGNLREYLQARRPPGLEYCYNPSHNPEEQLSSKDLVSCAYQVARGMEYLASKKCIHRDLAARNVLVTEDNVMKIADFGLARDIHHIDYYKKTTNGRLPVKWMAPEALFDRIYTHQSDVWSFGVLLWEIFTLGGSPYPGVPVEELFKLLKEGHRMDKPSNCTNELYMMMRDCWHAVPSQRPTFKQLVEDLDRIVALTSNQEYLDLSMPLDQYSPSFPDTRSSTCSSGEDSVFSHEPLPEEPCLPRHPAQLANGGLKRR

[21] = system: Receptor-type tyrosine-protein kinase FLT3 (Homo sapiens), P36888 [N841I]; conditions: Compound concentration 1000.0 nM
[22] = system: eIF-2-alpha kinase GCN2 (Homo sapiens), Q9P2K8 [S808G]; conditions: Compound concentration 1000.0 nM
[23] = biological target: Insulin receptor (Homo sapiens) (UniProt P06213); conditions: Compound concentration 1000.0 nM
Chain of Insulin receptor (Homo sapiens) (P06213 28-758 limits assumed): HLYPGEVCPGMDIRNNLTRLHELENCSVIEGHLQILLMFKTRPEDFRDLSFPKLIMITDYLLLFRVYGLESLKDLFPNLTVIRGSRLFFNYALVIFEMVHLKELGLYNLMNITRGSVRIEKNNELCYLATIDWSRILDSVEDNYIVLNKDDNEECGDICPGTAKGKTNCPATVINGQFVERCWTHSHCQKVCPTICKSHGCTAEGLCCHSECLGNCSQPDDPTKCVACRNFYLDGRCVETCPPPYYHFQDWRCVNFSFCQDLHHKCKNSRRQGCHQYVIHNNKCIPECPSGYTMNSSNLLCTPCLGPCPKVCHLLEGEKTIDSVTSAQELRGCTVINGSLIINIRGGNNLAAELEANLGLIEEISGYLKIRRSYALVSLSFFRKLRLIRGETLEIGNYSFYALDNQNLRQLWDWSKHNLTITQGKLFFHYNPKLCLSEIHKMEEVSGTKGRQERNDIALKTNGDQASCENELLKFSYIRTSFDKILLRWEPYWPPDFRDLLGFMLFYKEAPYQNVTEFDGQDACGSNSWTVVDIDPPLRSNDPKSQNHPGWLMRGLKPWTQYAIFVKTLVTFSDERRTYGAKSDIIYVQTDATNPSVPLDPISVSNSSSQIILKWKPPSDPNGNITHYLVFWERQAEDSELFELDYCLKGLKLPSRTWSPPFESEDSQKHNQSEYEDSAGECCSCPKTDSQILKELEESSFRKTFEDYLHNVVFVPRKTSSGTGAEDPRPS
Chain of Insulin receptor (Homo sapiens) (P06213 763-1382 limits assumed): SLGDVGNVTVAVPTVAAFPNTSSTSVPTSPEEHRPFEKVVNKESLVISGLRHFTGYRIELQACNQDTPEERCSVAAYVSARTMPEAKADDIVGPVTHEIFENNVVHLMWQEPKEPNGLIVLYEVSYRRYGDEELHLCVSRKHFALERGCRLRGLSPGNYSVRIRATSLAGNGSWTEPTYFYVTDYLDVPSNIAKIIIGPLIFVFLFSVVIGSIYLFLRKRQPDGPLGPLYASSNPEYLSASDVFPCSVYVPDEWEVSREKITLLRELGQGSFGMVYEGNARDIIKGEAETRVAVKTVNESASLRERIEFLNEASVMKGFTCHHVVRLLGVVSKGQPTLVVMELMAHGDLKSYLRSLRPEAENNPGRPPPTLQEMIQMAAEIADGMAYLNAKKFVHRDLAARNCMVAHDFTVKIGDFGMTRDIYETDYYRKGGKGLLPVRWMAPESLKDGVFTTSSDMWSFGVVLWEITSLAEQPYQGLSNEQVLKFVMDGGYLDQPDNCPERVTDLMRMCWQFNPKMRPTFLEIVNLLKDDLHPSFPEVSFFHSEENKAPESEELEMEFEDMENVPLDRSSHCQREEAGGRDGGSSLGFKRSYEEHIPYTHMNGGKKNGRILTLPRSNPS

[24] = biological target: Interleukin-1 receptor-associated kinase 4 (Homo sapiens) (UniProt Q9NWZ3); conditions: Compound concentration 1000.0 nM
[25] = biological target: Tyrosine-protein kinase JAK2 (Homo sapiens) (UniProt O60674); conditions: Compound concentration 1000.0 nM
[26] = biological target: LIM domain kinase 2 (Homo sapiens) (UniProt P53671); conditions: Compound concentration 1000.0 nM
[27] = biological target: Leukocyte tyrosine kinase receptor (Homo sapiens) (UniProt P29376); conditions: Compound concentration 1000.0 nM
[28] = biological target: Mitogen-activated protein kinase kinase kinase 13 (Homo sapiens) (UniProt O43283); conditions: Compound concentration 1000.0 nM
[29] = biological target: Mitogen-activated protein kinase kinase kinase 15 (Homo sapiens) (UniProt Q6ZN16); conditions: Compound concentration 1000.0 nM
[30] = biological target: Mitogen-activated protein kinase kinase kinase 3 (Homo sapiens) (UniProt Q99759); conditions: Compound concentration 1000.0 nM
[31] = biological target: MAP kinase-activated protein kinase 5 (Homo sapiens) (UniProt Q8IW41); conditions: Compound concentration 1000.0 nM
Chain of MAP kinase-activated protein kinase 5 (Homo sapiens) (Q8IW41 whole entry): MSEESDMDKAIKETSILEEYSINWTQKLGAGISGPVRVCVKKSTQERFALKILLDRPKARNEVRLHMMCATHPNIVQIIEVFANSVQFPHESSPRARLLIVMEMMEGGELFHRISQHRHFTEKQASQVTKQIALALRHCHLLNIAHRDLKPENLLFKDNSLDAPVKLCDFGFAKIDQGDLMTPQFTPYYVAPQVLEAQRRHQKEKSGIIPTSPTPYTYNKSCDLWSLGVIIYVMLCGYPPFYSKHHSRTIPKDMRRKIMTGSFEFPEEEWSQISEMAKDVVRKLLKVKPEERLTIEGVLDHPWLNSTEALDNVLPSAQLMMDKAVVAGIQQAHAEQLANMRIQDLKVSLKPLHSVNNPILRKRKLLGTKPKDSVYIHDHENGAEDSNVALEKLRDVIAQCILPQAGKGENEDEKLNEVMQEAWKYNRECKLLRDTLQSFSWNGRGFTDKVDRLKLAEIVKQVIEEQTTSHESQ

[32] = biological target: MAP kinase-interacting serine/threonine-protein kinase 1 (Homo sapiens) (UniProt Q9BUB5); conditions: Compound concentration 1000.0 nM
[33] = biological target: Serine/threonine-protein kinase Nek1 (Homo sapiens) (UniProt Q96PY6); conditions: Compound concentration 1000.0 nM
[34] = biological target: Serine/threonine-protein kinase OSR1 (Homo sapiens) (UniProt O95747); conditions: Compound concentration 1000.0 nM
[35] = biological target: Mitogen-activated protein kinase 13 (Homo sapiens) (UniProt O15264); conditions: Compound concentration 1000.0 nM
Chain of Mitogen-activated protein kinase 13 (Homo sapiens) (O15264 whole entry): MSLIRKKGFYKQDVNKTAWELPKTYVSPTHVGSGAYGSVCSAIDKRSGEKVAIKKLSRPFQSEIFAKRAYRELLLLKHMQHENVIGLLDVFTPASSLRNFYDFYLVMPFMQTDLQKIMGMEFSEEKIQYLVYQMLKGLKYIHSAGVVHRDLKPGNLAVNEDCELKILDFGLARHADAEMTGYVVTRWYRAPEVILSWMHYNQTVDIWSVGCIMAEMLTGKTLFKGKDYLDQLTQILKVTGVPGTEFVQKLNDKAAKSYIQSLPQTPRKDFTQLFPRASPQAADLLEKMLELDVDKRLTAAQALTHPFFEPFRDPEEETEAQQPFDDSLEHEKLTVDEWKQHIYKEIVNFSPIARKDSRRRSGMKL

[36] = biological target: Cyclin-dependent kinase 18 (Homo sapiens) (UniProt Q07002); conditions: Compound concentration 1000.0 nM
[37] = biological target: Phosphatidylinositol 4,5-bisphosphate 3-kinase catalytic subunit alpha isoform (Homo sapiens) (UniProt P42336); conditions: Compound concentration 1000.0 nM
[38] = system: Phosphatidylinositol 4,5-bisphosphate 3-kinase catalytic subunit alpha isoform (Homo sapiens), P42336 [E545A]; conditions: Compound concentration 1000.0 nM
Chain of Phosphatidylinositol 4,5-bisphosphate 3-kinase catalytic subunit alpha isoform (Homo sapiens), P42336 [E545A] (P42336 whole entry E545A, canonical isoform): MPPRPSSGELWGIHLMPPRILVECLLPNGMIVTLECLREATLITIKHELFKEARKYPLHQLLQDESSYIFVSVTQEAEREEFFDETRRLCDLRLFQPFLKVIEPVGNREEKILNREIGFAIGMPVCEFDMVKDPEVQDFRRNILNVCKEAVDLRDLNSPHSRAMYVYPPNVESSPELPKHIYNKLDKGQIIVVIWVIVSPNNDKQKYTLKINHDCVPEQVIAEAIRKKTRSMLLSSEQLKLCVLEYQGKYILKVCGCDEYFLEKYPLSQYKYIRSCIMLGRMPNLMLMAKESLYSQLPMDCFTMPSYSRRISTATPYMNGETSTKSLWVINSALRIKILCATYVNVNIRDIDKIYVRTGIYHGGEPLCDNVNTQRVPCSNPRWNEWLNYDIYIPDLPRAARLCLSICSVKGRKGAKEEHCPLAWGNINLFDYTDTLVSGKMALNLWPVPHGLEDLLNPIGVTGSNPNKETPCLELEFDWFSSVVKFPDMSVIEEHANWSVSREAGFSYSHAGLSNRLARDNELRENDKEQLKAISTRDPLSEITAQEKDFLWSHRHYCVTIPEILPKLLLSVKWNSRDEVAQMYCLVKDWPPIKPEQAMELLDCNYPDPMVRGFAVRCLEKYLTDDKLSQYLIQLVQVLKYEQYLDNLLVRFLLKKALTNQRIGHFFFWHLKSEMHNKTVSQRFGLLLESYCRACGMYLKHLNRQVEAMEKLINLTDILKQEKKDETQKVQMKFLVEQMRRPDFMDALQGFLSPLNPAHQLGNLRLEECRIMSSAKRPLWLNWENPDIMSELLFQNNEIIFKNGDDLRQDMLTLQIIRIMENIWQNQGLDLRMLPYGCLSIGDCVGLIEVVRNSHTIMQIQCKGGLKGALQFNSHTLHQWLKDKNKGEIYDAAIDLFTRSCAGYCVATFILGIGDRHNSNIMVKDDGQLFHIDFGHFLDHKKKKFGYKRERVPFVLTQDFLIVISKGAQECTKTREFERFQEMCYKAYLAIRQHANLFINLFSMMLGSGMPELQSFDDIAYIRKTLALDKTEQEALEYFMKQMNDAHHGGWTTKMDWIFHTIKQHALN

[39] = biological target: Serine/threonine-protein kinase RIO3 (Homo sapiens) (UniProt O14730); conditions: Compound concentration 1000.0 nM
Chain of Serine/threonine-protein kinase RIO3 (Homo sapiens) (O14730 whole entry): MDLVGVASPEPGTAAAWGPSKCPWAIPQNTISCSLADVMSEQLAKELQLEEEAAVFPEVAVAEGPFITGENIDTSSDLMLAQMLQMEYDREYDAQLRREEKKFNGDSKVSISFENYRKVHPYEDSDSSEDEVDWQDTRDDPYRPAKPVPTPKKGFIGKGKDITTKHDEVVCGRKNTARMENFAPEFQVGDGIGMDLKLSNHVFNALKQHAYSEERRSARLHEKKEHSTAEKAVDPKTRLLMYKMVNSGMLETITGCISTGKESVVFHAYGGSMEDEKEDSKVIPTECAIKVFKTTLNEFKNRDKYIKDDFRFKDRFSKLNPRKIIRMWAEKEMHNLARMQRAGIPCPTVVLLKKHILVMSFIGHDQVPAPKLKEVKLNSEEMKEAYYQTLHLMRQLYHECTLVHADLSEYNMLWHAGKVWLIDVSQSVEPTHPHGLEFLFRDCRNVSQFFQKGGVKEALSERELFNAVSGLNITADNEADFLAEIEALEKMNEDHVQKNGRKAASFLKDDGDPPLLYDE

[40] = biological target: Dual serine/threonine and tyrosine protein kinase (Homo sapiens) (UniProt Q6XUX3); conditions: Compound concentration 1000.0 nM
[41] = biological target: SRSF protein kinase 1 (Homo sapiens) (UniProt Q96SB4); conditions: Compound concentration 1000.0 nM
[42] = biological target: Dual specificity testis-specific protein kinase 1 (Homo sapiens) (UniProt Q15569); conditions: Compound concentration 1000.0 nM
[43] = biological target: Serine/threonine-protein kinase WNK2 (Homo sapiens) (UniProt Q9Y3S1); conditions: Compound concentration 1000.0 nM
[44] = biological target: 5-hydroxytryptamine receptor 5A (Homo sapiens) (UniProt P47898); conditions: Compound concentration 10.0 uM
Chain of 5-hydroxytryptamine receptor 5A (Homo sapiens) (P47898 whole entry): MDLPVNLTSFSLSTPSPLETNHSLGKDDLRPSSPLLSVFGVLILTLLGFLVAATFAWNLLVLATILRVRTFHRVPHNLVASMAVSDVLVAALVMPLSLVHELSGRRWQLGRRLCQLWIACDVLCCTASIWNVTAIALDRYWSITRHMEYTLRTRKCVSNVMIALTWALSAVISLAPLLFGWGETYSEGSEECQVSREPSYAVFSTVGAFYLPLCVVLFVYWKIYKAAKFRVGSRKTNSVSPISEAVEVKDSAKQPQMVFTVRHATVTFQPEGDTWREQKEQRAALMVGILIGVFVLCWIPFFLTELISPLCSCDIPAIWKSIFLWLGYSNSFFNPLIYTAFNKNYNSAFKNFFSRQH

[45] = biological target: D(1B) dopamine receptor (Homo sapiens) (UniProt P21918); conditions: Compound concentration 10.0 uM

Cc1c(NC(=O)c2cc(C(N)=O)nc3cc(F)ccc23)c(C(F)(F)F)nn1Cc1ccc(C(C)(C)C)cc1 [BAY-588]
residual activity [1]: 100%
residual activity [2]: 100%
residual activity [3]: 100%
residual activity [4]: 100%
residual activity [5]: 82%
residual activity [6]: 100%
residual activity [7]: 100%
residual activity [8]: 89%
residual activity [9]: 100%
residual activity [10]: 100%
residual activity [11]: 81%
residual activity [12]: 100%
residual activity [13]: 66%
residual activity [14]: 78%
residual activity [15]: 100%
residual activity [16]: 100%
residual activity [17]: 71%
residual activity [18]: 100%
residual activity [19]: 100%
residual activity [20]: 93%
residual activity [21]: 52%
residual activity [22]: 56%
residual activity [23]: 100%
residual activity [24]: 100%
residual activity [25]: 100%
residual activity [26]: 84%
residual activity [27]: 83%
residual activity [28]: 100%
residual activity [29]: 95%
residual activity [30]: 100%
residual activity [31]: 87%
residual activity [32]: 100%
residual activity [33]: 97%
residual activity [34]: 100%
residual activity [35]: 49%
residual activity [36]: 88%
residual activity [37]: 100%
residual activity [38]: 100%
residual activity [39]: 97%
residual activity [40]: 89%
residual activity [41]: 100%
residual activity [42]: 100%
residual activity [43]: 100%
inhibition [44]: 8.32%
inhibition [45]: 2.96%

Cc1c(NC(=O)c2cc(C(N)=O)nc3cc(F)ccc23)c(C(F)(F)F)nn1Cc1ccc(C#N)cc1 [BAY-876]
residual activity [1]: 76%
residual activity [2]: 87%
residual activity [3]: 80%
residual activity [4]: 75%
residual activity [5]: 77%
residual activity [6]: 89%
residual activity [7]: 100%
residual activity [8]: 100%
residual activity [9]: 86%
residual activity [10]: 77%
residual activity [11]: 76%
residual activity [12]: 88%
residual activity [13]: 66%
residual activity [14]: 86%
residual activity [15]: 100%
residual activity [16]: 85%
residual activity [17]: 100%
residual activity [18]: 96%
residual activity [19]: 83%
residual activity [20]: 100%
residual activity [21]: 53%
residual activity [22]: 100%
residual activity [23]: 100%
residual activity [24]: 84%
residual activity [25]: 75%
residual activity [26]: 95%
residual activity [27]: 82%
residual activity [28]: 84%
residual activity [29]: 100%
residual activity [30]: 66%
residual activity [31]: 84%
residual activity [32]: 68%
residual activity [33]: 95%
residual activity [34]: 67%
residual activity [35]: 70%
residual activity [36]: 100%
residual activity [37]: 100%
residual activity [38]: 81%
residual activity [39]: 75%
residual activity [40]: 78%
residual activity [41]: 83%
residual activity [42]: 93%
residual activity [43]: 87%
inhibition [44]: -2.35%
inhibition [45]: -0.829%
